System: 521955-158-R2-J5-PDC complex spheroid viability
Assay: Anticancer human tumor 521955-158-R2-J5-PDC patient-derived pancreatic carcinoma cell line growth inhibition
Conditions: for IC50: curve of first compound; for viability, T/C: stronger effect = lower value
Method in brief: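 Complex spheroids of tumor cells with HUVEC and human MSCs, exposed to iadademstat combined with other agents. Each agent tested in half-log steps from near clinical Cmax (else 10 microM top), DMSO ≤0.25%.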

[1] = second compound 0.1 µM, first compound 0.0316 µM
[2] = second compound 0.1 µM, first compound 0.1 µM
[3] = second compound 0.1 µM, first compound 0.316 µM
[4] = second compound 0.1 µM, first compound 1 µM
[5] = second compound 0.1 µM, first compound 3.16 µM
[6] = second compound 0.1 µM, first compound 10 µM
[7] = second compound 0.316 µM, first compound 0.0316 µM
[8] = second compound 0.316 µM, first compound 0.1 µM
[9] = second compound 0.316 µM, first compound 0.316 µM
[10] = second compound 0.316 µM, first compound 1 µM
[11] = second compound 0.316 µM, first compound 3.16 µM
[12] = second compound 0.316 µM, first compound 10 µM
[13] = second compound 1 µM, first compound 0.0316 µM
[14] = second compound 1 µM, first compound 0.1 µM
[15] = second compound 1 µM, first compound 0.316 µM
[16] = second compound 1 µM, first compound 1 µM
[17] = second compound 1 µM, first compound 3.16 µM
[18] = second compound 1 µM, first compound 10 µM
[19] = second compound 3.16 µM, first compound 0.0316 µM
[20] = second compound 3.16 µM, first compound 0.1 µM
[21] = second compound 3.16 µM, first compound 0.316 µM
[22] = second compound 3.16 µM, first compound 1 µM
[23] = second compound 3.16 µM, first compound 3.16 µM
[24] = second compound 3.16 µM, first compound 10 µM
[25] = second compound 10 µM, first compound 0.0316 µM
[26] = second compound 10 µM, first compound 0.1 µM
[27] = second compound 10 µM, first compound 0.316 µM
[28] = second compound 10 µM, first compound 1 µM
[29] = second compound 10 µM, first compound 3.16 µM
[30] = second compound 10 µM, first compound 10 µM
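Note: spheroids exposed to agents for seven days.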
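Throughout, for viability, T/C: percent of DMSO vehicle control luminescence viability.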

Work on CC(C)c1c(-c2ccccc2)nc2c(C#N)c[nH]n2c1=O + NC1CCC(NC2CC2c2ccccc2)CC1 yielded an IC50 (second compound 0.1 µM) of over 10000 nM, an IC50 (second compound 0.316 µM) of over 10000 nM and an IC50 (second compound 1 µM) of over 10000 nM. For the same compound, the IC50 (second compound 3.16 µM) was over 10000 nM, the IC50 (second compound 10 µM) was over 10000 nM and the viability, T/C [1] was 87.4%. The viability, T/C [2] was 89.5%, the viability, T/C [3] was 88.8% and the viability, T/C [4] was 84.7%. The viability, T/C [5] was 79%, the viability, T/C [6] was 68.2% and the viability, T/C [7] was 84.9%. The viability, T/C [8] was 85.5%, the viability, T/C [9] was 89.2% and the viability, T/C [10] was 78.3%. The viability, T/C [11] was 70.9%, the viability, T/C [12] was 65% and the viability, T/C [13] was 86.3%. For the same compound, the viability, T/C [14] was 83.6%, the viability, T/C [15] was 89.4% and the viability, T/C [16] was 81.7%. The viability, T/C [17] was 76.3%, the viability, T/C [18] was 62.9% and the viability, T/C [19] was 90%. It also gave a viability, T/C [20] of 86.7%, a viability, T/C [21] of 89.1% and a viability, T/C [22] of 85.1%. For the same compound, the viability, T/C [23] was 74.2%, the viability, T/C [24] was 59.6% and the viability, T/C [25] was 87.8%. It also gave a viability, T/C [26] of 84.3%, a viability, T/C [27] of 80.7% and a viability, T/C [28] of 79.2%. The viability, T/C [29] was 66.2% and the viability, T/C [30] was 54.5%.

CC1COCCN1c1cc(-c2ccnn2C)c2ccnc(-c3ccn[nH]3)c2n1 (stereo not given) + NC1CCC(NC2CC2c2ccccc2)CC1 was tested, and the IC50 (second compound 0.1 µM) was under 3.16 nM, the IC50 (second compound 0.316 µM) was under 3.16 nM and the IC50 (second compound 1 µM) was under 3.16 nM. It also gave an IC50 (second compound 3.16 µM) of under 3.16 nM, an IC50 (second compound 10 µM) of under 3.16 nM and a viability, T/C (second compound 0.1 µM, first compound 0.00316 µM) of 13.4%. The viability, T/C (second compound 0.1 µM, first compound 0.01 µM) was 12.4%, the viability, T/C [1] was 15.4% and the viability, T/C [2] was 22.6%. For the same compound, the viability, T/C [3] was 21.1%, the viability, T/C [4] was 8.33% and the viability, T/C (second compound 0.316 µM, first compound 0.00316 µM) was 14.7%. For the same compound, the viability, T/C (second compound 0.316 µM, first compound 0.01 µM) was 18.1%, the viability, T/C [7] was 16.6% and the viability, T/C [8] was 26.2%. For the same compound, the viability, T/C [9] was 26.8%, the viability, T/C [10] was 10.4% and the viability, T/C (second compound 1 µM, first compound 0.00316 µM) was 14.7%. It also gave a viability, T/C (second compound 1 µM, first compound 0.01 µM) of 14.4%, a viability, T/C [13] of 16.7% and a viability, T/C [14] of 21.9%. For the same compound, the viability, T/C [15] was 27.5%, the viability, T/C [16] was 8.96% and the viability, T/C (second compound 3.16 µM, first compound 0.00316 µM) was 17.2%. For the same compound, the viability, T/C (second compound 3.16 µM, first compound 0.01 µM) was 15.2%, the viability, T/C [19] was 17.5% and the viability, T/C [20] was 23.5%. For the same compound, the viability, T/C [21] was 28.7%, the viability, T/C [22] was 8.47% and the viability, T/C (second compound 10 µM, first compound 0.00316 µM) was 16.8%. The viability, T/C (second compound 10 µM, first compound 0.01 µM) was 16.9%, the viability, T/C [25] was 16.7% and the viability, T/C [26] was 24.8%. For the same compound, the viability, T/C [27] was 29.1% and the viability, T/C [28] was 7.2%.

Compound COc1ccc([C@@H](O)c2cc(-c3ncnc4cc(N5CCOCC5)ccc34)c(F)cc2Cl)nn1 + NC1CCC(NC2CC2c2ccccc2)CC1 has an IC50 (second compound 0.1 µM) of 838 nM, an IC50 (second compound 0.316 µM) of 973 nM and an IC50 (second compound 1 µM) of 640 nM. The IC50 (second compound 3.16 µM) was 795 nM, the IC50 (second compound 10 µM) was 742 nM and the viability, T/C [1] was 81.5%. It also gave a viability, T/C [2] of 80.9%, a viability, T/C [3] of 66.5% and a viability, T/C [4] of 42.9%. It also gave a viability, T/C [5] of 38.6%, a viability, T/C [6] of 22.7% and a viability, T/C [7] of 74.4%. For the same compound, the viability, T/C [8] was 72.3%, the viability, T/C [9] was 65.3% and the viability, T/C [10] was 45%. It also gave a viability, T/C [11] of 38.8%, a viability, T/C [12] of 22.4% and a viability, T/C [13] of 77.4%. The viability, T/C [14] was 81.8%, the viability, T/C [15] was 57.8% and the viability, T/C [16] was 42.6%. The viability, T/C [17] was 30.9%, the viability, T/C [18] was 19.7% and the viability, T/C [19] was 80.7%. For the same compound, the viability, T/C [20] was 80.7%, the viability, T/C [21] was 65% and the viability, T/C [22] was 45.8%. It also gave a viability, T/C [23] of 29.1%, a viability, T/C [24] of 19.3% and a viability, T/C [25] of 80%. For the same compound, the viability, T/C [26] was 79.5%, the viability, T/C [27] was 64.5% and the viability, T/C [28] was 42.2%. For the same compound, the viability, T/C [29] was 30.5% and the viability, T/C [30] was 15.4%.
